# According to US20020183518A1, “Modulators of proteins with phosphotyrosine recognition units” (ONTOGEN CORPORATION, priority 1995, published 2002):
# Molecular target: T1, PTP-1B (Homo sapiens, UniProt P18031)
# T1 construct: known to encode a 321 amino acid fragment containing the PTP-1B catalytic domain and having PTPase activity; made in house; host or cells: E. coli DH5α, plasmid pGEX-3X-PTP-1B
# T1 sequence (P18031 3-277 limits assumed): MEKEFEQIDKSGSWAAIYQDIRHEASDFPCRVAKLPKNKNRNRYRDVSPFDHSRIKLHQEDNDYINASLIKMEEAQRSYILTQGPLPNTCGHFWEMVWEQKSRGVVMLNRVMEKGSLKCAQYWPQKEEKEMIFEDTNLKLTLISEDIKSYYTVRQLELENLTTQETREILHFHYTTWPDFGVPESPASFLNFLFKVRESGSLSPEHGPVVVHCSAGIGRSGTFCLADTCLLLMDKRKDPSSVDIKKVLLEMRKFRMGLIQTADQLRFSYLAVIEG
# Test: In vitro PTPase inhibition assay (pNPP, colorimetric), PTP-1B
# Assay type: biochemical
# Conditions: Table 9; read-out: IC50 values against PTP1B
# Protocol: PTP-1B enzymatic activity of samples was assayed in microtiter plates as follows. The protein concentration of the PTP-1B enzyme preparation was determined using the Bio-Rad Protein Assay kit (Bio-Rad, Hercules Calif.). […] Reactions were mixed gently and incubated at 37° C. for 60 minutes. Enzymatic cleavage of phosphate from pNPP (a tyrosine phosphate analog) is marked by a colorimetric change in this substrate. See, e.g., Imbert et al., Biochem J., 297:163-173 (1994); Ghosh and Miller, Biochem. Biophys. Res. […] Zanke et al., Eur. J. […] To determine the enzymatic activity, absorbance readings of the reactions were measured at 405 nm using a Molecular Devices Thermomax Plate Reader (Menlo Park Calif.). […] Purified phosphatase was added to the reaction mixtures to begin the reactions; the reactions were incubated at 37° C. for 60 min. […] (for PTP-1C and PTPα assays), stopped, and colorimetrically analyzed as described above. […] First, absorbance readings from the negative control reactions were treated as a baseline and subtracted from the absorbance readings of the experimental reactions. Then, for each reaction, a percent inhibition was calculated using the following formula: […] For each inhibitor compound tested, an IC50 concentration was calculated from a best-fit computer analysis of the calculated percent inhibition for the various dilutions of the compound. PTP-1B enzymatic activity of samples was assayed in microtiter plates as follows. The protein concentration of the PTP-1B enzyme preparation was determined using the Bio-Rad Protein Assay kit (Bio-Rad, Hercules Calif.). […] Reactions were mixed gently and incubated at 37° C. for 60 minutes. Enzymatic cleavage of phosphate from pNPP (a tyrosine phosphate analog) is marked by a colorimetric change in this substrate. See, e.g., Imbert et al., Biochem J., 297:163-173 (1994); Ghosh and Miller, Biochem. Biophys. Res. […] Zanke et al., Eur. […] To determine the enzymatic activity, absorbance readings of the reactions were measured at 405 nm using a Molecular Devices Thermomax Plate Reader (Menlo Park Calif.). […] Purified phosphatase was added to the reaction mixtures to begin the reactions; the reactions were incubated at 37° C. for 60 min. […] (for PTP-1C and PTPα assays), stopped, and calorimetrically analyzed as described above. […] First, absorbance readings from the negative control reactions were treated as a baseline and subtracted from the absorbance readings of the experimental reactions. Then, for each reaction, a percent inhibition was calculated using the following formula: […] For each inhibitor compound tested, an IC50 concentration was calculated from a best-fit computer analysis of the calculated percent inhibition for the various dilutions of the compound.
row,Compound,IC50 [µM]
1,CCCCCCCCNC(=O)/C=C/c1ccc(C(=O)C(=O)c2ccc(/C=C/C(=O)O)cc2)cc1 [Compound 13],31
2,O=C(O)/C=C/c1ccc(C(O)C(O)c2ccc(/C=C/C(=O)O)cc2)cc1 (stereo not shown) [Compound 23],0.27
3,COC(=O)CCCCC(=O)OC(c1ccc(/C=C/C(=O)O)cc1)C(O)c1ccc(/C=C/C(=O)O)cc1 (stereo not shown) [Compound 29],0.8
4,CCCCCCC(OC(=O)c1ccc(/C=C/C(=O)O)cc1)C(=O)NCC(=O)OCC (stereo not shown) [Compound 32],1.8
5,COc1ccc(-c2nc(-c3ccc(/C=C/C(=O)O)cc3)c(-c3ccc(/C=C/C(=O)O)cc3)s2)cc1 [Compound 168],3

# Other lines, results leading:
row,IC50 [µM],Compound
1,0.89,COc1ccc(C(=O)OC(c2ccc(/C=C/C(=O)O)cc2)C(O)c2ccc(/C=C/C(=O)O)cc2)cc1 (stereo not shown) [Compound 25]
2,0.5,COc1ccc(C(=O)OC(C(=O)c2ccc(/C=C/C(=O)O)cc2)c2ccc(/C=C/C(=O)O)cc2)cc1 (stereo not shown) [Compound 27]
3,3,CCCCNC(=O)C(OC(=O)c1ccc(/C=C/C(=O)O)cc1)C(=O)c1ccc(F)cc1 (stereo not shown) [Compound 144]
4,9,CCCCNC(=O)c1oc(-c2ccc(/C=C/C(=O)O)cc2)nc1-c1ccc(F)cc1 [Compound 148]
5,1.8,COc1ccc(C(=O)OC(c2ccc(/C=C/C(=O)O)cc2)C(OC(=O)c2ccc(OC)cc2)c2ccc(/C=C/C(=O)O)cc2)cc1 (stereo not shown) [Compound 162]
